test system: c-Myc; assay: c-Myc ELISA assay protocol in 22RV-1 cells; assay type: cell-based, human; settings: 18 h, read-out: cMyc IC50
Procedure: In each bioassay, cells were treated with varying amounts of compounds encompassed by the present disclosure, as shown in Table 1. The degradation of the following proteins were evaluated in this study: TANK-binding kinase 1 (TBK1), estrogen receptor α (ERα), bromodomain-containing protein 4 (BRD4), androgen receptor (AR), and c-Myc.
5. c-Myc ELISA Assay Protocol
22RV-1 cells were purchased from ATCC and cultured in RPMI+10% FBS media. Cells were harvested using trypsin (Gibco #25200-114), counted and seeded at 30,000 cells/well at a volume of 75 μL/well in RPMI +10% FBS media in 96-well plates. The cells were dosed with compounds diluted in 0.1% DMSO, incubated for 18 h then washed and lysed in 50 uL RIPA buffer (50 mM Tris pH8, 150 mM NaCl, 1% Tx-100, 0.1% SDS, 0.5% sodium deoxycholate) supplemented with protease and phosphatase inhibitors. The lysates were clarified at 4000 rpm at 4° C. for 10 minutes then aliquots were added into a 96-well ELISA plate of Novex Human c-myc ELISA kit from Life Technologies Catalog #KHO2041. 50 ul of c-Myc Detection antibody was added into every well, the plates incubated at room temperature for 3 hrs, then washed with ELISA wash buffer. 100 uL of the anti-rabbit IgG-HRP secondary antibody was added to each well and incubated at room temperature for 30 minutes. The plates were washed with ELISA wash buffer, 100 μL TMB added to each well, and then monitored every 5 minutes for a color change. 100 μL of stop solution is added and the plates read at 450 nm.

Row | SMILES | IC50
1 | Cc1sc2c(c1C)C(c1ccc(Cl)cc1)=N[C@@H](CC(=O)NCCOCCOCCNc1cccc3c1C(=O)N(C1CCC(=O)NC1=O)C3=O)c1nnc(C)n1-2 (stereo partly drawn) [Compound 37, 2-[(9S)-7-(4-chlorophenyl)-4,5,13-trimethyl-3-thia-1,8,11,12-tetraazatricyclo [8.3.0.0^2,^6]trideca-2(6),4,7,10,12-pentaen-9-yl]-N-{2-[2-(2-{[2-(2,6-dioxopiperidin-3-yl)-1,3-dioxo-2,3-dihydro-1H-isoindol-4-yl]amino}ethoxy)ethoxy]ethyl} acetamide] | < 50 nM
2 | Cc1sc2c(c1C)C(c1ccc(Cl)cc1)=N[C@@H](CC(=O)N[C@H](C)c1ccc(OCCOCCNc3cccc4c3CN(C3CCC(=O)NC3=O)C4=O)cc1)c1nnc(C)n1-2 (some centres unmarked) [Compound 38] | < 50 nM
3 | Cc1sc2c(c1C)C(c1ccc(Cl)cc1)=N[C@@H](CC(=O)NCCOCCNc1cccc3c1CN(C1CCC(=O)NC1=O)C3=O)c1nnc(C)n1-2 (stereo partly drawn) [Compound 39, 2-[(9S)-7-(4-chlorophenyl)-4,5,13-trimethyl-3-thia-1,8,11,12-tetraazatricyclo [8.3.0.0^2,^6]trideca-2(6),4,7,10,12-pentaen-9-yl]-N-[2-(2-{[2-(2,6-dioxopiperidin-3-yl)-1-oxo-2,3-dihydro-1H-isoindol-4-yl]amino}ethoxy)ethyl]acetamide] | > 50 nM
4 | Cc1sc2c(c1C)C(c1ccc(Cl)cc1)=N[C@@H](CC(=O)N[C@@H](C)c1ccc(-c3ncc(OCCCNc4cccc5c4C(=O)N(C4CCC(=O)NC4=O)C5=O)cn3)cc1)c1nnc(C)n1-2 (stereo partly drawn) [Compound 40, 2-((S)-4-(4-chlorophenyl)-2,3,9-trimethyl-6H-thieno[3,2-f][1,2,4]triazolo[4,3-a][1,4]diazepin-6-yl)-N-((1S)-1-(4-(5-(3-(2-(2,6-dioxopiperidin-3-yl)-1,3-dioxoisoindolin-4-ylamino)propoxy)pyrimidin-2-yl)phenyl)ethyl)acetamide] | < 50 nM
5 | Cc1sc2c(c1C)C(c1ccc(Cl)cc1)=N[C@@H](CC(=O)N[C@@H](C)c1ccc(OCCCOCCNc3cccc4c3C(=O)N(C3CCC(=O)NC3=O)C4=O)cc1)c1nnc(C)n1-2 (stereo partly drawn) [Compound 41, 2-[9S)-7-(4-chlorophenyl)-4,5,13-trimethyl-3-thia-1,8,11,12-tetraazatricyclo [8.3.0.0^2,^6]trideca-2(6),4,7,10,12-pentaen-9-yl]-N-[(1S)-1-{4-[3-(2-{[2-(2,6-dioxopiperidin-3-yl)-1,3-dioxo-2,3-dihydro-1H-isoindol-4-yl]amino}ethoxy)propoxyphenyl}ethyl]acetamide] | < 50 nM
6 | Cc1sc2c(c1C)C(c1ccc(Cl)cc1)=N[C@@H](CC(=O)N[C@@H](C)c1ccc(OCCOCCNc3cccc4c3CN(C3CCC(=O)NC3=O)C4=O)cc1)c1nnc(C)n1-2 (some centres unmarked) [Compound 42] | < 50 nM
7 | Cc1sc2c(c1C)C(c1ccc(Cl)cc1)=N[C@@H](CC(=O)NCCCCNc1cccc3c1C(=O)N(C1CCC(=O)NC1=O)C3=O)c1nnc(C)n1-2 (stereo partly drawn) [Compound 43, 2-[(9S)-7-(4-chlorophenyl)-4,5,13-trimethyl-3-thia-1,8,11,12-tetraazatricyclo [8.3.0.0^2,^6]trideca-2(6),4,7,10,12-pentaen-9-yl]-N-(4-{[2-(2,6-dioxopiperidin-3-yl)-1,3-dioxo-2,3-dihydro-1H-isoindol-4-yl]amino}butyl) acetamide] | > 50 nM
8 | Cc1nnc2n1C1=C(C(c3ccc(Cl)cc3)=N[C@H]2CC(=O)NCCCCCNc2cccc3c2C(=O)N(C2CCC(=O)NC2=O)C3=O)C(C)C(C)S1 (stereo partly drawn) [Compound 45, 2-[(9S)-7-(4-chlorophenyl)-4,5,13-trimethyl-3-thia-1,8,11,12-tetraazatricyclo [8.3.0.0^2,^6]trideca-2(6),4,7,10,12-pentaen-9-yl]-N-(5-{[2-(2,6-dioxopiperidin-3-yl)-1,3-dioxo-2,3-dihydro-1H-isoindol-4-yl]amino}pentyl) acetamide] | < 50 nM
9 | Cc1sc2c(c1C)C(c1ccc(Cl)cc1)=N[C@@H](CC(=O)NCCCNc1cccc3c1CN(C1CCC(=O)NC1=O)C3=O)c1nnc(C)n1-2 (stereo partly drawn) [Compound 46, 2-[(9S)-7-(4-chlorophenyl)-4,5,13-trimethyl-3-thia-1,8,11,12-tetraazatricyclo [8.3.0.0^2,^6]trideca-2(6),4,7,10,12-pentaen-9-yl]-N-(3-{[2-(2,6-dioxopiperidin-3-yl)-1-oxo-2,3-dihydro-1H-isoindol-4-yl]amino}propyl) acetamide] | > 50 nM
10 | Cc1sc2c(c1C)C(c1ccc(Cl)cc1)=N[C@@H](CC(=O)NCCCCNc1cccc3c1CN(C1CCC(=O)NC1=O)C3=O)c1nnc(C)n1-2 (stereo partly drawn) [Compound 47, 2-[(9S)-7-(4-chlorophenyl)-4,5,13-trimethyl-3-thia-1,8,11,12-tetraazatricyclo [8.3.0.0^2,^6]trideca-2(6),4,7,10,12-pentaen-9-yl]-N-(4-{[2-(2,6-dioxopiperidin-3-yl)-1-oxo-2,3-dihydro-1H-isoindol-4-yl]amino}butyl) acetamide] | > 50 nM
11 | Cc1sc2c(c1C)C(c1ccc(Cl)cc1)=N[C@@H](CC(=O)N[C@@H](C)c1ccc(OCCOCCNc3cccc4c3C(=O)N(C3CCC(=O)NC3=O)C4=O)c(F)c1)c1nnc(C)n1-2 (stereo partly drawn) [Compound 48, 2-[(9S)-7-(4-chlorophenyl)-4,5,13-trimethyl-3-thia-1,8,11,12-tetraazatricyclo [8.3.0.0^2,^6]trideca-2(6),4,7,10,12-pentaen-9-yl]-N-[(1S)-1-{4-[2-(2-{[2-(2,6-dioxopiperidin-3-yl)-1,3-dioxo-2,3-dihydro-1H-isoindol-4-yl]amino}ethoxy)ethoxy]-3-fluorophenyl}ethyl]acetamide] | < 50 nM
12 | Cc1sc2c(c1C)C(c1ccc(Cl)cc1)=N[C@@H](CC(=O)Nc1ccc(OCCOCCOCCOCCNc3cccc4c3C(=O)N(C3(C)CCC(=O)NC3=O)C4=O)cc1)c1nnc(C)n1-2 (stereo partly drawn) [Compound 49, 2-[(9S)-7-(4-chlorophenyl)-4,5,13-trimethyl-3-thia-1,8,11,12-tetraazatricyclo [8.3.0.0^2,^6]trideca-2(6),4,7,10,12-pentaen-9-yl]-N-[4-({1-[2-(3-methyl-2,6-dioxopiperidin-3-yl)-1,3-dioxo-2,3-dihydro-1H-isoindol-4-yl]-4,7,10-trioxa-1-azadodecan-12-yl}oxy)phenyl] acetamide] | > 50 nM
13 | Cc1sc2c(c1C)C(c1ccc(Cl)cc1)=N[C@@H](CC(=O)Nc1ccc(OCCOCCOCCOCCNc3cccc4c3C(=O)N(C3CCC(=O)N(C)C3=O)C4=O)cc1)c1nnc(C)n1-2 (stereo partly drawn) [Compound 50, 2-[(9S)-7-(4-chlorophenyl)-4,5,13-trimethyl-3-thia-1,8,11,12-tetraazatricyclo [8.3.0.0^2,^6]trideca-2(6),4,7,10,12-pentaen-9-yl]-N-[4-({1-[2-(1-methyl-2,6-dioxopiperidin-3-yl)-1,3-dioxo-2,3-dihydro-1H-isoindol-4-yl]-4,7,10-trioxa-1-azadodecan-12-yl}oxy)phenyl] acetamide] | > 50 nM
14 | Cc1sc2c(c1C)C(c1ccc(Cl)cc1)=N[C@@H](CC(=O)N[C@H](C)c1cccc(OCCCNc3cccc4c3CN(C3CCC(=O)NC3=O)C4=O)c1)c1nnc(C)n1-2 (stereo partly drawn) [Compound 51, 2-[(9S)-7-(4-chlorophenyl)-4,5,13-trimethyl-3-thia-1,8,11,12-tetraazatricyclo [8.3.0.0^2,^6]trideca-2(6),4,7,10,12-pentaen-9-yl]-N-[(1R)-1-[3-(3-{[2-(2,6-dioxopiperidin-3-yl)-1-oxo-2,3-dihydro-1H-isoindol-4-yl]amino}propoxy)phenyl]ethyl] acetamide] | > 50 nM
15 | Cc1sc2c(c1C)C(c1ccc(Cl)cc1)=N[C@@H](CC(=O)N[C@H]1CCN(C(=O)c3ccc(NCCNc4cccc5c4C(=O)N(C4CCC(=O)NC4=O)C5=O)cc3)C1)c1nnc(C)n1-2 (stereo partly drawn) [Compound 52, 2-[(9S)-7-(4-chlorophenyl)-4,5,13-trimethyl-3-thia-1,8,11,12-tetraazatricyclo [8.3.0.0^2,^6]trideca-2(6),4,7,10,12-pentaen-9-yl]-N-[(3S)-1-{4-[(2-{[2-(2,6-dioxopiperidin-3-yl)-1,3-dioxo-2,3-dihydro-1H-isoindol-4-yl]amino}ethyl)amino]benzoyl}pyrrolidin-3-yl]acetamide] | > 50 nM
16 | Cc1sc2c(c1C)C(c1ccc(Cl)cc1)=N[C@@H](CC(=O)NCCOCCNc1cccc3nc(C)n(C4CCC(=O)NC4=O)c(=O)c13)c1nnc(C)n1-2 (stereo partly drawn) [Compound 53, 2-[(9S)-7-(4-chlorophenyl)-4,5,13-trimethyl-3-thia-1,8,11,12-tetraazatricyclo [8.3.0.0^2,^6]trideca-2(6),4,7,10,12-pentaen-9-yl]-N-[2-(2-{[3-(2,6-dioxopiperidin-3-yl)-2-methyl-4-oxo-3,4-dihydroquinazolin-5-yl]amino}ethoxy)ethyl]acetamide] | > 50 nM
17 | Cc1sc2c(c1C)C(c1ccc(Cl)cc1)=N[C@@H](CC(=O)NCCCOCCCNc1cccc3c1CN(C1CCC(=O)NC1=O)C3=O)c1nnc(C)n1-2 (stereo partly drawn) [Compound 54, 2-[(9S)-7-(4-chlorophenyl)-4,5,13-trimethyl-3-thia-1,8,11,12-tetraazatricyclo [8.3.0.0^2,^6]trideca-2(6),4,7,10,12-pentaen-9-yl]-N-[3-(3-{[2-(2,6-dioxopiperidin-3-yl)-1-oxo-2,3-dihydro-1H-isoindol-4-yl]amino}propoxy)propyl]acetamide] | < 50 nM

Source: patent US11834460B2, “Imide-based modulators of proteolysis and associated methods of use” (YALE UNIVERSITY, priority 2018, dated 2023)
